{"source": "patent US11033537B2", "about": "“LPT-723 and immune checkpoint inhibitor combinations and methods of treatment” (BIOMED VALLEY DISCOVERIES, INC., priority 2015, dated 2021)", "key": {"[1]": {"system": "A20 murine syngeneic B cell lymphoma", "assay": "A20 lymphoma syngeneic model", "type": "in vivo, BALB/c mice", "details": "Day 15; LPT-723 30 mpk p.o. bid; anti-PD-1 10 mpk i.p. twice a week", "description": "BALB/c mice bearing A20 murine syngeneic B cell lymphoma were treated with control (vehicle), anti-PD-1 (clone RMP1-14), LPT-723 and anti-PD-1/LPT-723 combination. Treatment was initiated when tumor volume reached approximately 80-120 mm^3. Anti-PD-1 was dosed i.p. twice a week for three weeks at 10 mpk. LPT-723 was dosed p.o. twice a day at 30 mpk. […] No significant changes in body weights were noted."}, "[2]": {"assay": "Micronucleus assay (flow analysis, 7-day oral toxicity study)", "type": "in vivo", "details": "rat blood, Day 8 of 7-day oral study", "description": "Prior to necropsy on Day 8, rats in a main study group of a 7-day oral toxicity and toxicokinetic (TK) study were bled from the jugular vein for the evaluation of the flow analysis of micronucleus. […] The procedure used for collection and fixation of blood is summarized below:\nPreparation of the Fixative Tubes: Fixative tubes were prepared one day prior to blood collection. Two 15 mL polypropylene centrifuge tubes (VWR no. 21008-103) were required per sample. 2 mL of ultracold fixative-methanol was added to each appropriately labeled tube (Tubes B1 and B2), and caps were replaced. The rack of tubes was placed overnight at approximately −80° C. to allow for sufficient chilling of the fixative.\nPreparation of the Anticoagulant/Diluent Vials (prior to blood collection): One vial (2 mL cryovials; VWR no. 66008-728) was required for each sample. 350 μL of anticoagulant/diluent (Prototype Pig-a Mutation Assay Anticoagulant Solution, lot #17716, provided by BioReliance, from Litron) was aseptically aliquoted into each appropriately labeled vial (Tube A). […]\nTransferring of Fixed Samples into LTSS: Samples were transferred into LTSS after they had been in the fixative for at least 3 days. […] With a container of ice and a 25 mL pipette ready for aliquoting the buffer solution used below, the following steps were performed as quickly as possible (within approximately 20 seconds). […]"}, "[3]": {"system": "HCT-116 human colon xenografts", "assay": "HCT-116 human colorectal cancer xenograft model", "type": "in vivo", "details": "LPT-723 30 mpk p.o. twice a day, BALB/c nude mice", "description": "BALB/c nude mice bearing HCT-116 human colon xenografts were treated with control (vehicle) and LPT-723. Treatment was initiated when tumor volume reached approximately 80-120 mm^3. LPT-723 was dosed p.o. twice a day at 30 mpk."}, "A20 cells": {"system": "A20 cells", "assay": "In vitro cell viability assay, A20", "type": "cell-based, murine", "details": "Mus musculus"}, "[4]": {"assay": "Monkey cardiovascular (CV) study", "type": "in vivo", "details": "25 and 40 mg/kg oral gavage, male monkeys, cross-over"}}, "note": "Entries after “also recorded” stand apart in the source; their conditions may differ."}
{"smiles": "Cc1cc(-c2cncc(C(O)C(F)(F)F)c2)nc2c1C(=O)N(c1cnn(CC(F)F)c1)C2(C)C", "note": "(centres unmarked) [LPT-723]", "values": [{"measurement": "decrease in median tumor volume", "setting": "[1]", "result": 43, "unit": "%"}, {"measurement": "toxicity, micronucleus flow analysis", "setting": "[2]", "result": "No toxicity was observed; also recorded: no significant toxicity"}, {"measurement": "tumor growth inhibition", "setting": "[3]", "result": 45, "unit": "%"}, {"measurement": "IC50", "setting": "A20 cells", "result": 84.1, "unit": "µM"}, {"measurement": "toxicological observations", "setting": "[4]", "result": "no significant toxicological observations"}]}
